# pEC50: −log10 of the molar value.
# Assays:
# K562 [1] = test: Antiproliferative activity against human K562 cells assessed as inhibition of cell growth incubated for 3 days by celltiter-glo 2.0 assay; type: functional, cell-based; conditions: K562, 72 h
# K562 [2] = test: Antiproliferative activity against human K562 cells expressing ABL T315I mutant assessed as inhibition of cell growth incubated for 3 days by celltiter-glo 2.0 assay; type: functional, cell-based; conditions: K562, 72 h
# Bcr/Abl fusion protein [3] = biological target: Bcr/Abl fusion protein (Homo sapiens, UniProt P00519); type: protein assay
# Bcr/Abl fusion protein [4] = biological target: Bcr/Abl fusion protein (Homo sapiens, UniProt P00519, T315I); test: Inhibition of human BCR-ABL1 T315I mutant using Tyr2 peptide as substrate incubated for 1 hrs by FRET based Z-LYTE assay; type: protein assay
# K562 [5] = test: cells; conditions: Homo sapiens, K562, 72 h
# K562 [6] = test: cells; conditions: Homo sapiens, K562, 72 h; remark: listed apart in the source
pEC50 (K562 [1]),pEC50 (K562 [2]),pEC50 (Bcr/Abl fusion protein [3]),pEC50 (Bcr/Abl fusion protein [4]),pEC50 (K562 [5]),pEC50 (K562 [6]),SMILES
9.06,7.58,8.45,7.19,–,–,Cc1ccc(C(=O)Nc2ccc(CN3CCN(C(=O)CCOCCOCCOCCOCCOCCOCCOCCOCCOCCOCCOCCOCCOCCOCCOCCOCCOCCOCCOCCOCCOCCOCCOCCOCCNC(=O)C4CCN(c5ncc(C(=O)Nc6ccc(OC(F)(F)Cl)cc6)cc5-c5ccn[nH]5)CC4)CC3)c(C(F)(F)F)c2)cc1C#Cc1cnc2cccnn12
8.61,< 6.52,9.36,8.14,–,–,Cc1nc(Nc2ncc(C(=O)Nc3c(C)cccc3Cl)s2)cc(N2CCN(C(=O)CCOCCOCCOCCOCCOCCOCCOCCOCCOCCOCCOCCOCCNC(=O)C3CCN(c4ncc(C(=O)Nc5ccc(OC(F)(F)Cl)cc5)cc4-c4ccn[nH]4)CC3)CC2)n1
8.60,< 6.52,9.10,7.62,–,–,Cc1nc(Nc2ncc(C(=O)Nc3c(C)cccc3Cl)s2)cc(N2CCN(C(=O)CCOCCOCCOCCOCCOCCOCCOCCOCCOCCOCCNC(=O)C3CCN(c4ncc(C(=O)Nc5ccc(OC(F)(F)Cl)cc5)cc4-c4ccn[nH]4)CC3)CC2)n1
–,–,–,–,7.92,9.59,Cc1nc(Nc2ncc(C(=O)Nc3c(C)cccc3Cl)s2)cc(N2CCN(CCO)CC2)n1 [DASATINIB]
